# Data: patent publication US20240190855A1 (Relay Therapeutics, Inc., priority 2021, published 2024)
# Target: T1, CDK2/Cyclin E complex (Homo sapiens, UniProt P24941)
# T1 construct: purchased Eurofins 14-475
# Experiment: CDK2/Cyclin E fluorescence-based microfluidic mobility shift assay (CDK2 Biochemical Caliper Assay)
# Conditions: read-out: Biochemical CDK2/CyclinE Caliper IC50
# Procedure: Compounds of the present disclosure were tested in a CDK2/Cyclin E fluorescence-based microfluidic mobility shift assay (PerkinElmer).
# The active wild type CDK2/Cyclin E complex was purchased from Eurofins (14-475). Compound stocks were prepared in DMSO and were serially diluted into 11 concentrations by 3-fold dilution. […] Compounds were incubated in the presence of CDK2/Cyclin E complex and ATP for 30 minutes at room temperature. Catalytic reaction was initiated with the addition of 5 uL of a 4× peptide solution containing 6 uM fluorescently label substrate peptide, FL Peptide 18 (aa sequence 5-FAM-QSPKKG, PerkinElmer, 760362) in 1× reaction buffer.
# The final reaction components were 0.1 nM CDK2/Cyclin E, 2000 uM ATP and 1.5 uM FL Peptide 18 and 1% DMSO. Reactions were incubated RT for 20 hr and terminated with 75 uL of a stopping solution containing 0.5 M EDTA. Samples were analyzed using a LabChip EZ reader (PerkinElmer).
row,Structure (SMILES),IC50
1,Cc1cc(CC(=O)Nc2cc([C@H]3C[C@@H]4CC[C@H]3C4)[nH]n2)on1 (racemic) [Example 49],1000 to 100000 nM
2,Cc1cc(CC(=O)Nc2cc(N3CC[C@@H](COC(=O)NC4(C)CC4)C3)[nH]n2)on1 (racemic) [Example 53],1000 to 100000 nM
3,CC(C)NC(=O)O[C@@H]1CC[C@H](c2cc(Nc3nc4cccnc4o3)n[nH]2)C1 (racemic) [Example 140],≤ 100 nM
4,COCc1cc(C(=O)Nc2cc([C@H]3CC[C@H](c4ccc(C)[nH]c4=O)C3)[nH]n2)n(C)n1 (racemic) [Example 517],1000 to 100000 nM
5,COCc1cc(C(=O)Nc2cc([C@H]3CC[C@@H](c4ccc(C)[nH]c4=O)C3)[nH]n2)n(C)n1 (racemic) [Example 518],250 to 1000 nM
6,COCc1cc(C(=O)Nc2cc([C@@H]3CC[C@@H](c4ccc(C(C)C)cn4)C3)[nH]n2)n(C)n1 (racemic) [Example 571],1000 to 100000 nM
7,C[C@H]1CC[C@H](C)N1C(=O)OC[C@H]1C[C@@H](c2cc(Nc3ccc4c(n3)C(C)(C)NC4=O)n[nH]2)C1 (racemic) [Example 593],≤ 100 nM
8,"Cc1cc(CC(=O)Nc2cc([C@H]3CCC[C@H](OC(=O)NC4(C)CC4)CC3)[nH]n2)on1 (single isomer, unassigned) [Example 26]",1000 to 100000 nM
9,"Cc1cc(CC(=O)Nc2cc([C@@H]3C[C@H](OC(=O)NC4(C)CC4)CO3)[nH]n2)on1 (single isomer, unassigned) [Example 69]",≤ 100 nM
10,"CC(C)NC(=O)N[C@@H]1CC[C@H](c2cc(Nc3ncccn3)n[nH]2)C1 (single isomer, unassigned) [Example 86]",1000 to 100000 nM
11,"Cc1cc(CC(=O)Nc2cc([C@H]3C[C@@H](OC(=O)NC4(C)CC4)CO3)[nH]n2)on1 (single isomer, unassigned) [Example 101]",≤ 100 nM
12,"Cc1cc(CC(=O)Nc2cc([C@H]3C[C@H](OC(=O)NC4(C)CC4)CO3)[nH]n2)on1 (single isomer, unassigned) [Example 108]",1000 to 100000 nM
13,"Cc1cc(CC(=O)Nc2cc([C@@H]3C[C@@H](OC(=O)NC4(C)CC4)CO3)[nH]n2)on1 (single isomer, unassigned) [Example 109]",1000 to 100000 nM
14,"COCc1nc2cc(Nc3cc([C@H]4CC[C@@H](OC(=O)NC(C)C)C4)[nH]n3)ncc2s1 (single isomer, unassigned) [Example 111]",250 to 1000 nM
15,"COCc1nc2cc(Nc3cc([C@@H]4CC[C@H](OC(=O)NC(C)C)C4)[nH]n3)ncc2s1 (single isomer, unassigned) [Example 112]",100 to 250 nM
16,"CC(C)NC(=O)O[C@H]1CC[C@@H](c2cc(Nc3ccsn3)n[nH]2)C1 (single isomer, unassigned) [Example 113]",1000 to 100000 nM
17,"CC(C)NC(=O)O[C@@H]1CC[C@H](c2cc(Nc3ccsn3)n[nH]2)C1 (single isomer, unassigned) [Example 114]",1000 to 100000 nM
18,"CC(C)NC(=O)O[C@@H]1CC[C@H](c2cc(Nc3nccc4ncsc34)n[nH]2)C1 (single isomer, unassigned) [Example 121]",≤ 100 nM
19,"CC(C)NC(=O)O[C@H]1CC[C@@H](c2cc(Nc3nccc4ncsc34)n[nH]2)C1 (single isomer, unassigned) [Example 122]",≤ 100 nM
20,"CC(C)NC(=O)N[C@@H]1CC[C@H](c2cc(Nc3ncccn3)n[nH]2)C1 (single isomer, unassigned) [Example 123]",1000 to 100000 nM
21,"CC(C)NC(=O)N[C@H]1CC[C@@H](c2cc(Nc3ncccn3)n[nH]2)C1 (single isomer, unassigned) [Example 124]",1000 to 100000 nM
22,"Cc1cc(CC(=O)Nc2cc([C@H]3CC[C@@H](NC(=O)c4ccccc4)C3)[nH]n2)on1 (single isomer, unassigned) [Example 131]",1000 to 100000 nM
23,"Cc1cc(CC(=O)Nc2cc([C@@H]3CC[C@H](NC(=O)c4ccccc4)C3)[nH]n2)on1 (single isomer, unassigned) [Example 132]",1000 to 100000 nM
24,"CC(C)NC(=O)O[C@@H]1CC[C@H](c2cc(Nc3nccn4nccc34)n[nH]2)C1 (single isomer, unassigned) [Example 138]",≤ 100 nM
25,"CC(C)NC(=O)O[C@H]1CC[C@@H](c2cc(Nc3nccn4nccc34)n[nH]2)C1 (single isomer, unassigned) [Example 139]",≤ 100 nM
26,"Cc1cc(CC(=O)Nc2cc([C@H]3CC[C@@H](Oc4cccnc4)C3)[nH]n2)on1 (single isomer, unassigned) [Example 339]",250 to 1000 nM

# Other lines, results leading:
row,IC50,Structure (SMILES)
1,250 to 1000 nM,Cc1cc(CC(=O)Nc2cc([C@H]3CC[C@@H](NC(N)=O)C3)[nH]n2)on1 (racemic) [Example 10]
2,250 to 1000 nM,"Cc1cc(CC(=O)Nc2cc([C@H]3CC[C@@H](N4CC5(CC5)NC4=O)C3)[nH]n2)on1 (single isomer, unassigned) [Example 90]"
3,250 to 1000 nM,"Cc1cc(CC(=O)Nc2cc([C@H]3CC[C@@H](n4cc(C)[nH]c4=O)C3)[nH]n2)on1 (single isomer, unassigned) [Example 92]"
4,1000 to 100000 nM,"Cc1cc(CC(=O)Nc2cc([C@H]3CC[C@@H](n4cc(C(C)C)[nH]c4=O)C3)[nH]n2)on1 (single isomer, unassigned) [Example 93]"
5,≤ 100 nM,"Cc1cc(CC(=O)Nc2cc([C@H]3CC[C@@H](Oc4nnccc4C(C)C)C3)[nH]n2)on1 (single isomer, unassigned) [Example 97]"
6,1000 to 100000 nM,"Cc1cc(CC(=O)Nc2cc([C@@H]3CC[C@H](N(C)C(=O)NC(C)C)C3)[nH]n2)on1 (single isomer, unassigned) [Example 103]"
7,≤ 100 nM,"Cc1cc(CC(=O)Nc2cc([C@@H]3CC[C@H](Oc4nnccc4C(C)C)C3)[nH]n2)on1 (single isomer, unassigned) [Example 104]"
8,100 to 250 nM,"Cc1cc(CC(=O)Nc2cc([C@@H]3CC[C@H](N4CC(C)(C)NC4=O)C3)[nH]n2)on1 (single isomer, unassigned) [Example 118]"
9,≤ 100 nM,"Cc1cc(CC(=O)Nc2cc([C@@H]3CC[C@H](Oc4nnccc4C)C3)[nH]n2)on1 (single isomer, unassigned) [Example 120]"
10,≤ 100 nM,"Cc1cc(CC(=O)Nc2cc([C@H]3CC[C@@H](Oc4nscc4C4CC4)C3)[nH]n2)on1 (single isomer, unassigned) [Example 127]"
11,≤ 100 nM,"Cc1cc(CC(=O)Nc2cc([C@@H]3CC[C@H](Oc4nscc4C4CC4)C3)[nH]n2)on1 (single isomer, unassigned) [Example 128]"
12,1000 to 100000 nM,"Cc1cc(CC(=O)Nc2cc([C@H]3CC[C@@H](NC(=O)CC(C)C)C3)[nH]n2)on1 (single isomer, unassigned) [Example 129]"
13,1000 to 100000 nM,"Cc1cc(CC(=O)Nc2cc([C@@H]3CC[C@H](NC(=O)CC(C)C)C3)[nH]n2)on1 (single isomer, unassigned) [Example 130]"
14,1000 to 100000 nM,"CCS(=O)(=O)N[C@@H]1CC[C@H](c2cc(NC(=O)Cc3cc(C)no3)n[nH]2)C1 (single isomer, unassigned) [Example 133]"
15,1000 to 100000 nM,"CCS(=O)(=O)N[C@H]1CC[C@@H](c2cc(NC(=O)Cc3cc(C)no3)n[nH]2)C1 (single isomer, unassigned) [Example 134]"
16,1000 to 100000 nM,"Cc1cc(CC(=O)Nc2cc([C@@H]3C[C@@H]3COC(=O)NC(C)C)[nH]n2)on1 (single isomer, unassigned) [Example 136]"
17,1000 to 100000 nM,"Cc1cc(CC(=O)Nc2cc([C@H]3C[C@H]3COC(=O)NC(C)C)[nH]n2)on1 (single isomer, unassigned) [Example 137]"
18,1000 to 100000 nM,"Cc1cc(CC(=O)Nc2cc([C@H]3CC[C@H](N(C)C(=O)NC(C)C)C3)[nH]n2)on1 (single isomer, unassigned) [Example 141]"
19,1000 to 100000 nM,"Cc1cc(CC(=O)Nc2cc([C@@H]3CC[C@@H](N(C)C(=O)NC(C)C)C3)[nH]n2)on1 (single isomer, unassigned) [Example 142]"
20,1000 to 100000 nM,"Cc1cc(CC(=O)Nc2cc([C@H]3CC[C@@H](NC(=O)OC(C)C)C3)[nH]n2)on1 (single isomer, unassigned) [Example 143]"
21,1000 to 100000 nM,"Cc1cc(CC(=O)Nc2cc([C@@H]3CC[C@H](NC(=O)OC(C)C)C3)[nH]n2)on1 (single isomer, unassigned) [Example 144]"
22,1000 to 100000 nM,"CNS(=O)(=O)N[C@@H]1CC[C@H](c2cc(NC(=O)Cc3cc(C)no3)n[nH]2)C1 (single isomer, unassigned) [Example 145]"
23,1000 to 100000 nM,"CNS(=O)(=O)N[C@H]1CC[C@@H](c2cc(NC(=O)Cc3cc(C)no3)n[nH]2)C1 (single isomer, unassigned) [Example 146]"
24,250 to 1000 nM,"Cc1cc(CC(=O)Nc2cc([C@@H]3CC[C@H](N4CC5(CC5)NC4=O)C3)[nH]n2)on1 (single isomer, unassigned) [Example 338]"
25,1000 to 100000 nM,"Cc1cc(CC(=O)Nc2cc([C@@H]3CC[C@H](Oc4cccnc4)C3)[nH]n2)on1 (single isomer, unassigned) [Example 340]"
26,1000 to 100000 nM,"Cc1cc(CC(=O)Nc2cc([C@H]3CC[C@@H](CC(=O)O)C3)[nH]n2)on1 (single isomer, unassigned) [Example 341]"
27,1000 to 100000 nM,"Cc1cc(CC(=O)Nc2cc([C@@H]3CC[C@H](CC(=O)O)C3)[nH]n2)on1 (single isomer, unassigned) [Example 342]"
28,1000 to 100000 nM,"Cc1cc(CC(=O)Nc2cc([C@H]3CC[C@H](CC(=O)O)C3)[nH]n2)on1 (single isomer, unassigned) [Example 343]"
29,1000 to 100000 nM,"Cc1cc(CC(=O)Nc2cc([C@@H]3CC[C@@H](CC(=O)O)C3)[nH]n2)on1 (single isomer, unassigned) [Example 344]"
